Data as given in PubChem BioAssay AID624444 (Broad Institute, 2012).
The source made the active and inactive calls.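 Rule for the calls: active = fitted curve reaches 35% signal loss at a dose no higher than twice the top tested dose; inconclusive = flat fit with 30 to 70% loss, or poor fit; inactive = the rest.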

System: 26S proteasome chymotrypsin-like activity (human)
Assay: cellular 26S proteasome inhibition – U2OS cells, luminescence, dry powder, mechanism study for HSF1 activator project, dose response (AID 624444)
Details: Proteasome-Glo chymotrypsin luminescence; for activity change, negative = inhibition: at 38 µM (top of the series)

activity change, negative = inhibition | AC35 | Structure (SMILES)
-32% (inactive) |  | Nc1nc(SCc2ccc(F)cc2)ns1
41.7% (inactive) |  | Nc1nc(SCc2ccc(Cl)cc2Cl)ns1
-9% (inactive) |  | Nc1nc(S(=O)(=O)Cc2ccccc2)ns1
3.69% (inactive) |  | Cc1cccc(CSc2nsc(N)n2)c1
-9.05% (inactive) |  | Nc1nc(SCc2ccccc2Cl)ns1
-37.2% (inactive) |  | O=C(Nc1ccccc1)Nc1nc(SCc2ccccc2)ns1
 | 35.4 µM | O=C(Nc1nc(SCc2ccccc2)ns1)C1CCC1
-29.4% (inactive) |  | O=C(Nc1nc(SCc2ccccc2)ns1)C1CC=CCC1 (configuration not stated)
-3.56% (inactive) |  | Cc1ccccc1CSc1nsc(N)n1
 | 26 µM | Cc1ccccc1CSc1nnc(N)s1
-11% (inactive) |  | Nc1nc(SCc2ccccc2)ns1
19.2% (inactive) |  | Cc1ccccc1CSc1n[nH]c(N)n1
